Source: patent publication US20210070748A1, “INHIBITORS OF BRUTONS TYROSINE KINASE” (Pharmacyclics LLC, priority 2015, published 2021)
pIC50: −log10 of the molar value.

Legend:
Format in all cases: biochemical
BTK-WT = target: T1, BTK-WT (Homo sapiens, UniProt Q06187); assay: Btk in vitro inhibitory activity (one of Method A TR-FRET, Method B electrophoretic mobility shift, Method C radiometric filter binding); details: D-compounds panel data; read-out: IC50 BTK-WT
T1 construct: purified from insect cells as a full-length construct containing an N-terminal 6X-His tag; His6 (N); made in house; host or cells: insect cells (baculovirus Sf21 in Method B)
T1 sequence (Q06187 whole entry): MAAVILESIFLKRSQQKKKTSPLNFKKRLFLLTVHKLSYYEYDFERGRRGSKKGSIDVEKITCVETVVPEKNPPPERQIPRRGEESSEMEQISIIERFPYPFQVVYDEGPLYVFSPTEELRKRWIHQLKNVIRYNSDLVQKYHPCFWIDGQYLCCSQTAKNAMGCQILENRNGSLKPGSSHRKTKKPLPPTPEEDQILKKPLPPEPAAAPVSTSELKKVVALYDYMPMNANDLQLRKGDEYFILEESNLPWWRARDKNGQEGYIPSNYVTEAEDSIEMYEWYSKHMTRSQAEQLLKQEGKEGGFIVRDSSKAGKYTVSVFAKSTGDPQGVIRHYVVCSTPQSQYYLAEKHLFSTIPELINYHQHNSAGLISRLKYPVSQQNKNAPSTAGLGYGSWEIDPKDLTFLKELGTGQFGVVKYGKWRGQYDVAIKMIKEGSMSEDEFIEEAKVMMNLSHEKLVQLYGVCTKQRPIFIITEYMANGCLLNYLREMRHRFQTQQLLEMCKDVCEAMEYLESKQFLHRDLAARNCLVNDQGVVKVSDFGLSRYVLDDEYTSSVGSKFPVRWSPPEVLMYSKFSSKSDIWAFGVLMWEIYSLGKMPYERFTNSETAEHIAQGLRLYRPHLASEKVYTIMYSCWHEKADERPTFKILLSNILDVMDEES

ITK = target: T2, ITK (Homo sapiens, UniProt Q08881); assay: Inhibition of a panel of kinases, in vitro HotSpot kinase assay: ITK; details: D-compounds panel data; 1 μM ATP
T2 sequence (Q08881 1-620): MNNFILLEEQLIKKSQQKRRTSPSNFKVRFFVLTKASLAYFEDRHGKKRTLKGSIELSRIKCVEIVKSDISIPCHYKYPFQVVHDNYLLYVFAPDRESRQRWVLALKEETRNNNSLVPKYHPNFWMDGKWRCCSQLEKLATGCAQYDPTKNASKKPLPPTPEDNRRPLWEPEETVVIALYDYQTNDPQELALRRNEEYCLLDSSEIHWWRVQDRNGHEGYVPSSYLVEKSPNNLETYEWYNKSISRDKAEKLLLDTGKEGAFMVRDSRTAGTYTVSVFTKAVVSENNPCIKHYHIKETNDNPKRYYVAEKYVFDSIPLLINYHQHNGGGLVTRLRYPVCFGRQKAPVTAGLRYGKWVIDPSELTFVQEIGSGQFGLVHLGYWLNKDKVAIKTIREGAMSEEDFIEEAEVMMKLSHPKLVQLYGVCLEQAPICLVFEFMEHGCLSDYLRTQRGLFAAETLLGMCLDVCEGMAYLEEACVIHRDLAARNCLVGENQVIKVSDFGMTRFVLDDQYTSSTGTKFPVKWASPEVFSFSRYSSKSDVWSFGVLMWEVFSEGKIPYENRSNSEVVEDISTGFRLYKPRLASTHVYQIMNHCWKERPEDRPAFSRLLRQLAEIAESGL
Protocol: (§1) The degree of inhibition of a panel of kinases is determined using the in vitro HotSpot kinase assay (purified enzymes, ^33P-ATP, an appropriate substrate and 1 μM ATP).

SRC = SRC (Homo sapiens, UniProt P12931); assay: Inhibition of a panel of kinases, in vitro HotSpot kinase assay: SRC; details: D-compounds panel data; 1 μM ATP
SRC, sequence (P12931 whole entry): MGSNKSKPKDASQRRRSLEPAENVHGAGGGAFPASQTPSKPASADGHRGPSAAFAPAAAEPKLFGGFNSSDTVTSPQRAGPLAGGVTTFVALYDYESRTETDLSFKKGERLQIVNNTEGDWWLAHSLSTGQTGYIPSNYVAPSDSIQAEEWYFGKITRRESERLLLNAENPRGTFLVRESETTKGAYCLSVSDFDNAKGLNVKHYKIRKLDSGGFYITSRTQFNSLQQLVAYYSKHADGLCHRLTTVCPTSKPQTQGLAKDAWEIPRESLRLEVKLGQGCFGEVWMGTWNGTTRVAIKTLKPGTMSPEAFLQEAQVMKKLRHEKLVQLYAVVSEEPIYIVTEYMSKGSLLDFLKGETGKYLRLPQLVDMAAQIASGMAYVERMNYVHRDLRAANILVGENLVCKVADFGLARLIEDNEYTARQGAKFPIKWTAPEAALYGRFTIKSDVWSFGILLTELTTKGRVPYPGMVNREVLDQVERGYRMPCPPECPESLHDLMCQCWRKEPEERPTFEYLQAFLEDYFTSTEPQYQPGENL
Protocol: as §1

TEC = target: T3, TEC (Homo sapiens, UniProt P42680); assay: Inhibition of a panel of kinases, in vitro HotSpot kinase assay: TEC; details: D-compounds panel data; 1 μM ATP
T3 sequence (P42680 1-631): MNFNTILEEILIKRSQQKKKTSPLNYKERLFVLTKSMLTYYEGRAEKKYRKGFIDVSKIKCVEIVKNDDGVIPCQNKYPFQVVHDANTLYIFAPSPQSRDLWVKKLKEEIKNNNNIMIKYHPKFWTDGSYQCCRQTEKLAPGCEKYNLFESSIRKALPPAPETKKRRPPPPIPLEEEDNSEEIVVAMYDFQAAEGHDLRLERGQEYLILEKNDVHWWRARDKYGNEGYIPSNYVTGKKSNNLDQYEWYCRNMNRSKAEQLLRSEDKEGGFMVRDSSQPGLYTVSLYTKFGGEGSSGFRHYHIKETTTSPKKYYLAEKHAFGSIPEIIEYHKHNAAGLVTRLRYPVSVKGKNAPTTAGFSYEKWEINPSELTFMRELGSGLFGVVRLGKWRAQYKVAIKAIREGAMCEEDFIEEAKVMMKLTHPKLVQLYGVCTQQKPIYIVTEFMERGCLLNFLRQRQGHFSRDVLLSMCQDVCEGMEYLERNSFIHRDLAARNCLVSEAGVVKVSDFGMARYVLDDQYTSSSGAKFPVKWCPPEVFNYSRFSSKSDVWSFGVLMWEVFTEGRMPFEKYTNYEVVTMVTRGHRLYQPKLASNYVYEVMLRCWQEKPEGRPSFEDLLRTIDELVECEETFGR
Protocol: as §1

Row | pIC50 (BTK-WT) | pIC50 (ITK) | pIC50 (SRC) | pIC50 (TEC) | SMILES
1 | 7.00 to 8.00 | 5.00 to 6.00 | 5.00 to 6.00 | 6.00 to 7.00 | Cn1cc(Nc2nc(N3CC[C@@H](O)[C@H](NC(=O)c4ccc(C5CC5)cc4)C3)cnc2C(N)=O)cn1 (racemic) [Example D-26, (racemic)-trans-5-[3-(4-cyclopropylbenzamido)-4-hydroxypiperidin-1-yl]-3-[(1-methyl-1H-pyrazol-4-yl)amino]pyrazine-2-carboxamide]
2 | ≥ 8.00 | 6.00 to 7.00 | 6.00 to 7.00 | 7.00 to 8.00 | Cn1cc(Nc2nc(N3C[C@H](CO)C[C@H](NC(=O)c4ccc(C5CC5)cc4)C3)cnc2C(N)=O)cn1 (racemic) [Example D-43, (racemic)-cis-5-[3-(4-cyclopropylbenzamido)-5-(hydroxymethyl)piperidin-1-yl]-3-[(1-methyl-1H-pyrazol-4-yl)amino]pyrazine-2-carboxamide]
3 | 7.00 to 8.00 | 5.00 to 6.00 | 6.00 to 7.00 | 6.00 to 7.00 | CN(C)C(=O)N1CC[C@@H]2[C@H]1CCCN2c1cnc(C(N)=O)c(Nc2cnn(C)c2)n1 (racemic) [Example D-50, (racemic)-cis-5-[1-(dimethylcarbamoyl)-octahydro-1H-pyrrolo[3,2-b]pyridin-4-yl]-3-[(1-methyl-1H-pyrazol-4-yl)amino]pyrazine-2-carboxamide]
4 | 7.00 to 8.00 | 5.00 to 6.00 | 6.00 to 7.00 | 6.00 to 7.00 | Cn1cc(Nc2nc(N3CCC[C@@H]4[C@H]3CCN4C(=O)c3ccccc3)cnc2C(N)=O)cn1 (racemic) [Example D-54, (racemic)-cis-5-{1-benzoyl-octahydro-1H-pyrrolo[3,2-b]pyridin-4-yl}-3-[(1-methyl-1H-pyrazol-4-yl)amino]pyrazine-2-carboxamide]
5 | 5.00 to 6.00 | < 5.00 | < 5.00 | 5.00 to 6.00 | CN(C)C(=O)N[C@H]1CCCN(c2cnc(C(N)=O)c(Nc3ccc4ncccc4c3)n2)[C@@H]1CO (racemic) [Example D-64, trans 5-[3-[(dimethylcarbamoyl)amino]-2-(hydroxymethyl)piperidin-1-yl]-3-[(quinolin-6-yl)amino]pyrazine-2-carboxamide]
6 | 6.00 to 7.00 | < 5.00 | 5.00 to 6.00 | 5.00 to 6.00 | CN(C)C(=O)N[C@H]1CCCN(c2cnc(C(N)=O)c(Nc3ccc4ncccc4c3)n2)[C@H]1CO (racemic) [Example D-65, cis 5-[3-[(dimethylcarbamoyl)amino]-2-(hydroxymethyl)piperidin-1-yl]-3-[(quinolin-6-yl)amino]pyrazine-2-carboxamide]
7 | 5.00 to 6.00 | 5.00 to 6.00 | 5.00 to 6.00 | < 5.00 | Cn1cc(Nc2nc(N3CCC(NC(=O)c4ccc(C5CC5)cc4)C(O)C3)cnc2C(N)=O)cn1 (single isomer, unassigned) [Example D-28, Trans-5-[4-(4-cyclopropylbenzamido)-3-hydroxypiperidin-1-yl]-3-[(1-methyl-1H-pyrazol-4-yl)amino]pyrazine-2-carboxamide]
8 | 6.00 to 7.00 | 5.00 to 6.00 | 5.00 to 6.00 | 5.00 to 6.00 | Cn1cc(Nc2nc(N3CCC(NC(=O)c4ccc(C5CC5)cc4)C(O)C3)cnc2C(N)=O)cn1 (single isomer, unassigned) [Example D-29, Trans-5-[4-(4-cyclopropylbenzamido)-3-hydroxypiperidin-1-yl]-3-[(1-methyl-1H-pyrazol-4-yl)amino]pyrazine-2-carboxamide]
9 | ≥ 8.00 | 6.00 to 7.00 | 6.00 to 7.00 | 7.00 to 8.00 | C[C@@H]1[C@H](NC(=O)c2ccc(C3CC3)cc2F)CCCN1c1cnc(C(N)=O)c(Nc2cnn(C)c2)n1 [Example D-1, 5-[(2R,3R)-3-(4-cyclopropyl-2-fluorobenzamido)-2-methylpiperidin-1-yl]-3-[(1-methyl-1H-pyrazol-4-yl)amino]pyrazine-2-carboxamide]
10 | ≥ 8.00 | 7.00 to 8.00 | 7.00 to 8.00 | 7.00 to 8.00 | C[C@@H]1[C@H](NC(=O)N(C)C)CCCN1c1cnc(C(N)=O)c(Nc2ccc(OC3CCN(C)CC3)cc2)n1 [Example D-33, 5-[(2R,3R)-3-[(dimethylcarbamoyl)amino]-2-methylpiperidin-1-yl]-3-({4-[(1-methylpiperidin-4-yl)oxy]phenyl}amino)pyrazine-2-carboxamide]

The next lines start with the molecule.

Row | SMILES | pIC50 (BTK-WT) | pIC50 (ITK) | pIC50 (SRC) | pIC50 (TEC)
11 | Cc1cc(Nc2nc(N3CCC[C@@H](NC(=O)c4ccc(C5CC5)cc4F)C3)cnc2C(N)=O)on1 [Example D-2, 5-[(3R)-3-(4-cyclopropyl-2-fluorobenzamido)piperidin-1-yl]-3-[(3-methyl-1,2-oxazol-5-yl)amino]pyrazine-2-carboxamide] | 6.00 to 7.00 | < 5.00 | 5.00 to 6.00 | 5.00 to 6.00
12 | NC(=O)c1ncc(N2CCC[C@@H](NC(=O)c3ccc(C4CC4)cc3F)C2)nc1Nc1cc(-c2ccccc2)ns1 [Example D-3, 5-[(3R)-3-(4-cyclopropyl-2-fluorobenzamido)piperidin-1-yl]-3-[(3-phenyl-1,2-thiazol-5-yl)amino]pyrazine-2-carboxamide] | < 5.00 | < 5.00 | < 5.00 | < 5.00
13 | Cc1ncc(Nc2nc(N3CCC[C@@H](NC(=O)c4ccc(C5CC5)cc4F)C3)cnc2C(N)=O)s1 [Example D-4, 5-[(3R)-3-(4-cyclopropyl-2-fluorobenzamido)piperidin-1-yl]-3-[(2-methyl-1,3-thiazol-5-yl)amino]pyrazine-2-carboxamide] | 7.00 to 8.00 | 5.00 to 6.00 | < 5.00 | 6.00 to 7.00
14 | C[C@@H]1[C@H](N2Cc3cc(Br)ccc3C2=O)CCCN1c1cnc(C(N)=O)c(Nc2cnn(C)c2)n1 [Example D-27, 5-[(2R,3R)-3-(5-bromo-1-oxo-2,3-dihydro-1H-isoindol-2-yl)-2-methylpiperidin-1-yl]-3-[(1-methyl-1H-pyrazol-4-yl)amino]pyrazine-2-carboxamide] | ≥ 8.00 | 6.00 to 7.00 | 7.00 to 8.00 | ≥ 8.00
15 | C[C@H]1C[C@@H](NC(=O)c2ccc(C3CC3)cc2)CN(c2cnc(C(N)=O)c(Nc3cnn(C)c3)n2)C1 [Example D-30, 5-[(3R,5S)-3-(4-cyclopropylbenzamido)-5-methylpiperidin-1-yl]-3-[(1-methyl-1H-pyrazol-4-yl)amino]pyrazine-2-carboxamide] | ≥ 8.00 | 5.00 to 6.00 | 6.00 to 7.00 | 7.00 to 8.00
16 | C[C@@H]1C[C@@H](NC(=O)c2ccc(C3CC3)cc2)CN(c2cnc(C(N)=O)c(Nc3cnn(C)c3)n2)C1 [Example D-31, 5-[(3R,5R)-3-(4-cyclopropylbenzamido)-5-methylpiperidin-1-yl]-3-[(1-methyl-1H-pyrazol-4-yl)amino]pyrazine-2-carboxamide] | 7.00 to 8.00 | 5.00 to 6.00 | 6.00 to 7.00 | 6.00 to 7.00
17 | C[C@@H]1C[C@H](NC(=O)c2ccc(C3CC3)cc2)CN(c2cnc(C(N)=O)c(Nc3cnn(C)c3)n2)C1 [Example D-32, 5-[(3S,5R)-3-(4-cyclopropylbenzamido)-5-methylpiperidin-1-yl]-3-[(1-methyl-1H-pyrazol-4-yl)amino]pyrazine-2-carboxamide] | 6.00 to 7.00 | < 5.00 | < 5.00 | 6.00 to 7.00
18 | C[C@H]1C[C@H](NC(=O)c2ccc(C3CC3)cc2)CN(c2cnc(C(N)=O)c(Nc3cnn(C)c3)n2)C1 [Example D-34, 5-[(3S,5S)-3-(4-cyclopropylbenzamido)-5-methylpiperidin-1-yl]-3-[(1-methyl-1H-pyrazol-4-yl)amino]pyrazine-2-carboxamide] | 5.00 to 6.00 | < 5.00 | < 5.00 | 5.00 to 6.00
